Test results reported in US8916565B2, “Pyrrolopyrazine-spirocyclic piperidine amides as modulators of ion channels” (priority 2011, dated 2014).

Molecular target: human NaV subtype, like NaV 1.7 (Homo sapiens, UniProt Q15858)
Assay: E-VIPR optical membrane potential assay with electrical stimulation
Assay type: cell-based
Details: active against one or more sodium channels; Table 3 does not name the assay or NaV subtype; read-out: Binned Activity Data (IC50)

Chain of human NaV subtype, like NaV 1.7 (Q15858 whole entry): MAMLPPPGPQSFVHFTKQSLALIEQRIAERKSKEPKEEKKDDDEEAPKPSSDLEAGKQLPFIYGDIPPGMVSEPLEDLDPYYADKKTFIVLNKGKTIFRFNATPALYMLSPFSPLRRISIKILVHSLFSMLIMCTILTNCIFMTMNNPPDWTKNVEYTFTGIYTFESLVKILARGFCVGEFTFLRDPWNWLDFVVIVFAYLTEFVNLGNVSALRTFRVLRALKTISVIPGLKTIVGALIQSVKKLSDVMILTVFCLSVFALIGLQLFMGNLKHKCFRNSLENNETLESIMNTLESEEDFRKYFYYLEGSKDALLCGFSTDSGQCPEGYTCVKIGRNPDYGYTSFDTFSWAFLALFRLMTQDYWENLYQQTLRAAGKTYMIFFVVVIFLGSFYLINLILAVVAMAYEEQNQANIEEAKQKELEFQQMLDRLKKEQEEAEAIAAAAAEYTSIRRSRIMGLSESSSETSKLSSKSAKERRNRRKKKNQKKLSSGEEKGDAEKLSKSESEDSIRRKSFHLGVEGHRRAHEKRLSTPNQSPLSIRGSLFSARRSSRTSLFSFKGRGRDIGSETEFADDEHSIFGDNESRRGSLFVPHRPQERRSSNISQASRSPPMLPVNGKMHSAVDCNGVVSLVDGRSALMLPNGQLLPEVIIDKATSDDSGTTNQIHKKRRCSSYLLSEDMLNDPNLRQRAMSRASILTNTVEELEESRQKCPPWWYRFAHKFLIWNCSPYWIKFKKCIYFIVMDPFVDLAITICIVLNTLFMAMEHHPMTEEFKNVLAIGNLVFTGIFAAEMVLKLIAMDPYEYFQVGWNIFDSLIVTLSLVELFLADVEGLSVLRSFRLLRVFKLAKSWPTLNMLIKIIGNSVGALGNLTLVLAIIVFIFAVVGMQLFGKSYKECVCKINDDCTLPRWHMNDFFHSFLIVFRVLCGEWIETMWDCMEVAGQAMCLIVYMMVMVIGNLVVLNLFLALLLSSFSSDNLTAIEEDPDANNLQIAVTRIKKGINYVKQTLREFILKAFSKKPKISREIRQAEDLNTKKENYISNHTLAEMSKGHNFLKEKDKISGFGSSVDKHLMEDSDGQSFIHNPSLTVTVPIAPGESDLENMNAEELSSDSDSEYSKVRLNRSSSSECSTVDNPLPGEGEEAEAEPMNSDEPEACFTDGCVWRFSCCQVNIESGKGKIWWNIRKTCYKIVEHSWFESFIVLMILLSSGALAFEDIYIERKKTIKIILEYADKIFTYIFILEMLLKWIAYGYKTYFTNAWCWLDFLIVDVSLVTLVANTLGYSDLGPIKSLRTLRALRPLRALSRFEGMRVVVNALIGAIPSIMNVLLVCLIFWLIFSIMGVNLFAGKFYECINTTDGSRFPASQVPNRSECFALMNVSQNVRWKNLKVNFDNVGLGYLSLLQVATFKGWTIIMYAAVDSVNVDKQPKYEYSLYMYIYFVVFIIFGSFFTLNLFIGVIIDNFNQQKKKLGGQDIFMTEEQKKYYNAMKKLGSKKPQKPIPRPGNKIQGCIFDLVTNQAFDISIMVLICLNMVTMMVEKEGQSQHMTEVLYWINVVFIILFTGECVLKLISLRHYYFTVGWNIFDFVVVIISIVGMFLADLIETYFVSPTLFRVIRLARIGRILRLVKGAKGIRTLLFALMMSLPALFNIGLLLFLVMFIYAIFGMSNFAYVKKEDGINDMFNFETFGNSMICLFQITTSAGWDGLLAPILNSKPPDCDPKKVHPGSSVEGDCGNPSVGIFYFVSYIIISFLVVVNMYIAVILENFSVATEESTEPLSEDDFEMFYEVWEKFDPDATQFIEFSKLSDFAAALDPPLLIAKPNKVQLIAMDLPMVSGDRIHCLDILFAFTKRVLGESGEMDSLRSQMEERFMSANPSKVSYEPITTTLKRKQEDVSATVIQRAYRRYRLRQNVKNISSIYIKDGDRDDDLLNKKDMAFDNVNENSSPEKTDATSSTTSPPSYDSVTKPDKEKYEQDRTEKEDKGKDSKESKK

Row | Structure (SMILES) | IC50 [nM]
1 | COc1ccc(C(=O)N2CCC3(CC2)NCCn2c(C(F)(F)F)ccc23)cc1 [Compound 497] | > 5000
2 | CN1CCn2c(C(=O)C(F)(F)F)ccc2C12CCN(C(=O)c1ccc(S(=O)(=O)C(C)(C)C)cc1)CC2 [Compound 502] | > 5000
3 | CC(=O)c1ccc2n1CCN(C)C21CCN(C(=O)c2ccc(N3CCCCC3)cc2)CC1 [Compound 504] | > 5000
4 | COc1cc(C(=O)N2CCC3(NCCn4c(C(F)(F)F)ccc43)C(C)C2)ccc1OC(C)C (centres unmarked) [Compound 506] | 2000 to 5000
5 | CCCOc1ccc(C(=O)N2CCC3(CC2)c2ccc(C(C)=O)n2CCN3C)cc1 [Compound 507] | > 5000
6 | CCC(CC)(CC)c1ccc(C(=O)N2CCC3(CC2)c2ccc(C(C)=O)n2CCN3C)cc1 [Compound 511] | > 5000
7 | CCc1ccc(C(=O)N2CCC3(CC2)c2ccc(Cl)n2CCN3C)cc1OC [Compound 512] | 2000 to 5000
8 | COc1ncccc1-c1ccc(C(=O)N2CCC3(CC2)c2ccc(C(=O)C(F)(F)F)n2CCN3C)cc1C [Compound 514] | > 5000
9 | Cc1cc(C(=O)N2CCC3(CC2)c2ccc(C(F)(F)F)n2CCN3C)ccc1S(C)(=O)=O [Compound 515] | > 5000
10 | CC(=O)c1ccc2n1CCN(C)C21CCN(C(=O)c2ccc(C(C)C)cc2)CC1 [Compound 519] | > 5000
11 | O=C(c1ccnc2ccccc12)N1CCC2(CC1)NCCn1c(C(F)(F)F)ccc12 [Compound 527] | > 5000
12 | COc1ccc(C(=O)N2CCC3(CC2)c2cc(C(=O)C(F)(F)F)cn2C(C)(C)CN3C)cc1Cl [Compound 529] | > 5000
13 | CC(=O)c1ccc2n1CCN(C)C21CCN(C(=O)c2ccc(S(=O)(=O)NC3CC3)cc2)CC1 [Compound 532] | > 5000
14 | Cc1cc(C(=O)N2CCC3(CC2)c2ccc(CC(F)(F)F)n2CCN3C)ccc1S(=O)(=O)C(C)C [Compound 534] | > 5000
15 | COc1cc(C(=O)N2CCC3(CC2)c2ccc(C(C)=O)n2CCN3C)ccc1OC(C)C [Compound 535] | > 5000
16 | CC(=O)c1ccc2n1C(C)(C)CN(C)C21CCN(C(=O)c2ccc(OC(C)C)c(C(F)(F)F)c2)CC1 [Compound 536] | 2000 to 5000
17 | CCCCOc1cc(C(=O)N2CCC3(CC2)c2ccc(Cl)n2CCN3C)ccc1OC [Compound 539] | > 5000
18 | COc1cc(C(=O)N2CCC3(CC2)c2c(F)cc(C(F)(F)F)n2CCN3C)ccc1OCCO [Compound 540] | > 5000
19 | Cc1cc(C(=O)N2CCC3(CC2)c2ccc(S(C)(=O)=O)n2CCN3C)ccc1OC(C)C [Compound 542] | > 5000

Row | Structure (SMILES) | IC50 [nM]
20 | COc1cc(C(=O)N2CCC3(c4ccc(C(F)(F)F)n4CCN3C)C(C)C2)ccc1OC(C)C (centres unmarked) [Compound 545] | 2000 to 5000
21 | COc1cc(C(=O)N2CCC3(CC2)c2ccc(CC(F)(F)F)n2CCN3C)ccc1OC(C)C [Compound 547] | > 5000
22 | Cc1nc(C(=O)N2CCC3(CC2)c2ccc(C(=O)C(F)(F)F)n2C(C)CN3C)ccc1OC(C)C (centres unmarked) [Compound 556] | ≤ 2000
23 | CC(C)S(=O)(=O)c1ccc(C(=O)N2CCC3(CC2)NC(C)(C)Cn2c(C(=O)C(F)(F)F)ccc23)cc1 [Compound 557] | ≤ 2000
24 | CC(=O)c1ccc2n1CCN(C)C21CCN(C(=O)c2ccc(OC(C)C)c(CO)c2)CC1 [Compound 558] | > 5000
25 | CC(=O)c1ccc2n1CCN(C)C21CCN(C(=O)c2ccc(C3CCCCC3)cc2)CC1 [Compound 559] | ≤ 2000
26 | Cc1cc(C(=O)N2CCC3(CC2)c2c(Cl)cc(C(F)(F)F)n2CCN3C)ccc1OC(C)C [Compound 560] | ≤ 2000
27 | CNS(=O)(=O)c1ccc(C(=O)N2CCC3(CC2)c2ccc(C(=O)C(C)(C)C)n2CCN3C)cc1C [Compound 561] | ≤ 2000
28 | CC(C)Oc1ccc(C(=O)N2CCC3(CC2)c2c(F)cc(C(F)(F)F)n2CCN3C)cc1 [Compound 562] | ≤ 2000
29 | CC1(C)Cn2c(C(=O)C(F)(F)F)ccc2C2(CCN(C(=O)c3ccc(C4CCCCC4)cc3)CC2)N1 [Compound 563] | ≤ 2000
30 | CC(C)Oc1ccc(C(=O)N2CCC3(CC2)c2ccc(C(=O)C(F)(F)F)n2C[C@@H](C)N3C)c(F)c1 [Compound 564] | ≤ 2000
31 | COc1ccc(C(=O)N2CCC3(CC2)c2cc(C(=O)C(F)(F)F)cn2C(C)(C)CN3C)c(F)c1 [Compound 565] | 2000 to 5000
32 | COc1ccc(C(=O)N2CCC3(CC2)c2ccc(C(=O)C(C)(C)C)n2CCN3C)cc1C(F)(F)F [Compound 566] | ≤ 2000
33 | CC1(C)Cn2c(C(=O)C(F)(F)F)ccc2C2(CCN(C(=O)c3ccc(O)c(C(F)(F)F)c3)CC2)N1 [Compound 567] | ≤ 2000
34 | CC(C)Oc1ccc(C(=O)N2CCC3(CC2)c2ccc(C(F)(F)F)n2CCN3C)cc1F [Compound 568] | ≤ 2000
35 | O=C(c1ccc(S(=O)(=O)NC2CC2)cc1)N1CCC2(CC1)NCCn1c(C(F)(F)F)ccc12 [Compound 569] | ≤ 2000
36 | Cc1cc(C(=O)N2CCC3(CC2)c2ccc(C(=O)C(F)(F)F)n2CCN3C)ccc1OCC(C)(C)O [Compound 570] | ≤ 2000
37 | Cc1cc(C(=O)N2CCC3(CC2)c2ccc(C(F)(F)F)n2CCN3CC(N)=O)ccc1OC(C)C [Compound 571] | 2000 to 5000

Second part, the compound after the results:

Row | IC50 [nM] | Structure (SMILES)
38 | ≤ 2000 | Cc1cc(S(=O)(=O)C(C)C)ccc1C(=O)N1CCC2(CC1)c1ccc(C(F)(F)F)n1CCN2C [Compound 498]
39 | ≤ 2000 | CN1CCn2c(C(F)(F)F)ccc2C12CCN(C(=O)c1ccc(CC(C)(C)O)cc1)CC2 [Compound 499]
40 | ≤ 2000 | CC(C)S(=O)(=O)c1ccc(C(=O)N2CCC3(CC2)c2ccc(C(=O)C(F)(F)F)n2C[C@H](C)N3C)cc1 [Compound 500]
41 | ≤ 2000 | CC(C)COc1ccc(C(=O)N2CCC3(CC2)c2ccc(C(=O)C(F)(F)F)n2CCN3C)cc1 [Compound 501]
42 | ≤ 2000 | COc1ccc(C(=O)N2CCC3(CC2)NCC(C)n2c(C(=O)C(F)(F)F)ccc23)nc1C (centres unmarked) [Compound 503]
43 | ≤ 2000 | CC1CNC2(CCN(C(=O)c3ccc(COCCC(F)(F)F)cc3)CC2)c2ccc(C(=O)C(F)(F)F)n21 (centres unmarked) [Compound 505]
44 | ≤ 2000 | Cc1cc(C(=O)N2CCC3(CC2)c2ccc(C(=O)C(F)(F)F)n2CCN3C)ccc1S(=O)(=O)C(C)C [Compound 508]
45 | ≤ 2000 | CC1(C)Cn2c(C(=O)C(F)(F)F)ccc2C2(CCN(C(=O)c3ccc(OCC4CC4)c(F)c3)CC2)N1 [Compound 509]
46 | ≤ 2000 | CCOc1ccc(C(=O)N2CCC3(CC2)c2ccc(C(=O)C(F)(F)F)n2CCN3C)cc1OCC [Compound 510]
47 | ≤ 2000 | CC[C@@H](C)Oc1ccc(C(=O)N2CCC3(CC2)c2c(F)cc(C(F)(F)F)n2CCN3C)cc1OC [Compound 513]
48 | ≤ 2000 | COc1cc(C(=O)N2CCC3(CC2)c2ccc(C(=O)C(F)(F)F)n2CCN3C)ccc1OCC(C)C [Compound 516]
49 | ≤ 2000 | CN1CCn2c(C(=O)C(F)(F)F)ccc2C12CCN(C(=O)c1ccc(OS(=O)(=O)C(F)(F)F)cc1)CC2 [Compound 517]
50 | ≤ 2000 | CN1CCn2c(C(F)(F)F)ccc2C12CCN(C(=O)c1cccnc1N1CCC(F)C1)CC2 (centres unmarked) [Compound 518]
51 | ≤ 2000 | CC(=O)c1ccc2n1CCN(C)C21CCN(C(=O)c2ccc(OCC(F)(F)F)cc2)CC1 [Compound 520]
52 | ≤ 2000 | COc1ccc(C(=O)N2CCC3(CC2)c2ccc(C(=O)C4CC4)n2CCN3C)cc1C [Compound 521]
53 | ≤ 2000 | CC[C@H](C)Oc1ccc(C(=O)N2CCC3(CC2)NCCn2c(C(F)(F)F)ccc23)cc1OC [Compound 522]
54 | ≤ 2000 | Cc1cc(C(=O)N2CCC3(CC2)c2ccc(C(=O)C(C)(C)C)n2CCN3C)ccc1C(C)(C)O [Compound 523]
55 | ≤ 2000 | Cc1cc(C(=O)N2CCC3(CC2)NCC(C)n2c(C(=O)C(F)(F)F)ccc23)ccc1OC(C)C (centres unmarked) [Compound 524]
56 | ≤ 2000 | CC[C@H](C)Oc1ccc(C(=O)N2CCC3(CC2)c2ccc(C(F)(F)F)n2CCN3C)cc1OC [Compound 525]

Row | IC50 [nM] | Structure (SMILES)
57 | ≤ 2000 | Cc1cc(C(=O)N2CCC3(CC2)c2c(C#N)cc(C(F)(F)F)n2CCN3C)ccc1OC(C)C [Compound 526]
58 | ≤ 2000 | CC(C)Oc1ccc(C(=O)N2CCC3(CC2)c2ccc(C(=O)C(F)(F)F)n2CCN3C)cc1Cl [Compound 528]
59 | ≤ 2000 | CC(C)CCOc1ccc(C(=O)N2CCC3(CC2)c2ccc(Cl)n2CCN3C)cc1 [Compound 530]
60 | ≤ 2000 | Cc1cc(C(=O)N2CCC3(CC2)c2ccc(Cl)n2CCN3C)ccc1OCC(C)(C)O [Compound 531]
61 | ≤ 2000 | CNC(=O)N1CCn2c(C(F)(F)F)ccc2C12CCN(C(=O)c1ccc(OC(C)C)c(C)c1)CC2 [Compound 533]
62 | ≤ 2000 | CCc1ccc(C(=O)N2CCC3(CC2)c2ccc(C(=O)C(F)(F)F)n2CCN3C)cc1OC [Compound 537]
63 | ≤ 2000 | CCCOc1ccc(C(=O)N2CCC3(CC2)c2ccc(C(=O)C(F)(F)F)n2CCN3C)cc1OC [Compound 538]
64 | ≤ 2000 | COc1cc(C(=O)N2CCC3(CC2)c2ccc(C(C)=O)n2CCN3C)ccc1OCCOC(F)(F)F [Compound 541]
65 | ≤ 2000 | COc1cc(C(=O)N2CCC3(CC2)c2ccc(C(F)(F)F)n2CCN3C)cc(F)c1OC(C)C [Compound 544]
66 | ≤ 2000 | CC(C)Oc1ccc(C(=O)N2CCC3(CC2)c2ccc(C(F)(F)F)n2CCN3C)c(F)c1 [Compound 546]
67 | ≤ 2000 | CC(C)Oc1ccc(C(=O)N2CCC3(CC2)c2c(C#N)cc(C(F)(F)F)n2CCN3C)cc1Cl [Compound 548]
68 | ≤ 2000 | CC(C)Oc1ccc(C(=O)N2CCC3(CC2)NCCn2c(C(F)(F)F)ccc23)cc1CO [Compound 549]
69 | ≤ 2000 | CCCOc1ccc(C(=O)N2CCC3(CC2)NCCn2c(C(F)(F)F)ccc23)cc1OC [Compound 550]
70 | ≤ 2000 | COc1cc(C(=O)N2CCC3(CC2)NC(C)(C)Cn2c(C(F)(F)F)ccc23)ccc1OC(C)C [Compound 551]
71 | ≤ 2000 | C[C@H]1Cn2c(C(=O)C(F)(F)F)ccc2C2(CCN(C(=O)c3ccccc3OC(F)F)CC2)N1C [Compound 552]
72 | ≤ 2000 | CN1CCn2c(C(=O)C(F)(F)F)ccc2C12CCN(C(=O)c1ccc(COCC(F)(F)F)cc1)CC2 [Compound 553]
73 | ≤ 2000 | COc1cc(C(=O)N2CCC3(CC2)c2c(Cl)cc(C(F)(F)F)n2CCN3C)ccc1COCCC(F)(F)F [Compound 554]
74 | ≤ 2000 | COc1cc(C(=O)N2CCC3(CC2)c2ccc(C(=O)C(F)(F)F)n2CCN3C)ccc1-c1ccccc1 [Compound 555]
